Tested on: CA3 neurons of the hippocampus
Test: Decrease in neuronal excitability on hippocampus slice preparations of CA3 neurons, intracellular leads
Type: cell-based, guinea-pigs
Procedure: In the model of CA3 neurons in hippocampus tissue slices, NHE inhibitors with their antiepileptic and antipsychotic therapy potential inhibit epileptiform discharges. Hyperexcitability of neurons in the form of so-called epileptiform discharges was triggered by the action of bicuculline, caffeine or low magnesium concentrations. […] The decrease in neuronal excitability was tested on slice preparations of CA3 neurons of the hippocampus (guinea-pigs). The excitation-inhibiting action of cariporide (HOE 642) was investigated in 8 experiments. The neuronal excitability was assessed with intracellular leads with the aid of the spontaneous bioelectric activity and the pharmacologically produced epileptiform activity which had been induced by bicuculline, caffeine or absence of magnesium.

For `CC(C)c1ccc(C(=O)NC(=N)N)cc1S(C)(=O)=O` [cariporide], the “inhibition of the epileptiform discharges” value (CA3 neurons in hippocampus tissue slices, discharges triggered by bicuculline, caffeine or low magnesium concentrations) was “marked inhibition”, the “duration of the reduction of spontaneous action potential and paroxysmal depolarization frequency” value (after wash-in of 0.1-0.5 mM cariporide) was “more than 45 minutes” and the “reduction of the frequency of the spontaneous action potentials” value (after wash-in of 0.1-0.5 mM cariporide, reversible, 8 experiments) was 30-80%. The “reduction of the frequency of periodic paroxysmal depolarization” value (after wash-in of 0.1-0.5 mM cariporide, reversible, epileptiform activity induced by bicuculline, caffeine or absence of magnesium, 8 experiments) was 30-80%.

Source: patent US20040097544A1, “Use of an inhibitor of the Na+/H+ exchanger for the production of a medicament for the treatment or prophylaxis of disturbances of the central nervous system” (Hoechst Marion Roussel Deutschland GMBH, priority 1997, published 2004)
